Measurements: patent US20240116985A1, “STAPLED PEPTIDES AND METHODS THEREOF” (priority 2020, published 2024)
In brackets after ≈: the same amount, converted by molar mass. Like-named read-outs stand apart in the source and are kept apart here.

What was measured:
[1] = molecular target: T1, full-length beta-Catenin (Uniprot ID P35222) (Homo sapiens, UniProt P35222); assay: Fluorescence polarization IC50 (beta-catenin / 5FAM-TCF4 10-53 competition); type: binding
T1 construct: 10 nM full-length beta-Catenin (Uniprot ID P35222)
T1 sequence (P35222 1-781): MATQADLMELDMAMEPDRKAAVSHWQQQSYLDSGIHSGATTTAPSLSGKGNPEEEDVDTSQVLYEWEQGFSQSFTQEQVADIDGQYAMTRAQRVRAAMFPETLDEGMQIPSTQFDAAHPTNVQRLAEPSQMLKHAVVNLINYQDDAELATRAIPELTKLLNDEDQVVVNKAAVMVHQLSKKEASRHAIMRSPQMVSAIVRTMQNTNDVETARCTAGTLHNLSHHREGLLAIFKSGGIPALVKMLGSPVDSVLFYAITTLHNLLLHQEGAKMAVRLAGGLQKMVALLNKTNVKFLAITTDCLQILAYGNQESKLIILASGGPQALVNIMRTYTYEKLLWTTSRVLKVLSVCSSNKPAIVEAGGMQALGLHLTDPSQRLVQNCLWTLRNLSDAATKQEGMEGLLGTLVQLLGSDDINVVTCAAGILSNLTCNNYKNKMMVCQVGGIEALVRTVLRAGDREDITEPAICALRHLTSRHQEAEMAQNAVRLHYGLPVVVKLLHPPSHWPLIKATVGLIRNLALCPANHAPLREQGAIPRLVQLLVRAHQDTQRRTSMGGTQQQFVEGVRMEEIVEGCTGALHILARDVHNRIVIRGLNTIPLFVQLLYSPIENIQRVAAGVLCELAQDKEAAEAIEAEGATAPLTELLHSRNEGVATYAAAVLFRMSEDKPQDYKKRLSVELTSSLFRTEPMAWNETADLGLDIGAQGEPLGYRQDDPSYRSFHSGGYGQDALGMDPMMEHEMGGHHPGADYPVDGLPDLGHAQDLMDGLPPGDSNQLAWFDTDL

CHI Log D procedure = type: physicochemical
Solubility in PBS = type: physicochemical
In short: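 HPLC quantitation of peptide remaining in the PBS supernatant after ultracentrifugation, referenced to a 50 μM solution in DMSO.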

[2] = molecular target: T2, beta-catenin/TCF4 engagement (Homo sapiens, UniProt P35222); assay: Nano-BRET target engagement assay (B-cat-Halo & TCF4-Luc in HEK293 cells); type: cell-based; settings: for inhibition at 10 µM: read-out: NanoBRET % inh @ 10 uM
T2 construct: expressed in transfected cells; host or cells: HEK293
T2 sequence (P35222 1-781): T1 sequence (P35222 1-781)

[3] = fluorescence polarization, read-out: beta-Catenin FP IC50

SMILES	IC50 ([1]; read-out: beta-Catenin FP IC50)	chromatographic logD (CHI Log D procedure; pH 7.4, CHI Log D)	Solubility (Solubility in PBS; Solubility (uM))	IC50 ([2]; read-out: NanoBRET Abs IC50)	Solubility (Solubility in PBS)	CHI Log D (CHI Log D procedure; pH 7.4)	further results
COc1ccccc1C[C@H](NC(=O)[C@]12CCN(C1)C(=O)OCCCC=CCCCC1(CCCC=CC[C@]3(CCCN3C(C)=O)C(=O)N[C@@H](CC(=O)O)C(=O)N[C@@H](CC3CCCCC3)C(=O)N1)C(=O)N[C@@H](CC(=O)O)C(=O)N[C@@H](CC(=O)O)C(=O)N[C@@H](C)C(=O)N[C@@H](C)C(=O)N[C@@H](Cc1ccccc1)C(=O)N[C@@H](CO)C(=O)N2)C(=O)N[C@@H](Cc1csc2ccccc12)C(=O)N[C@@H](CO)C(N)=O (stereo partly drawn) [I-1104, Ac-PL3-Asp-Cha-B5-Asp-Asp-Ala-Ala-Phe-Ser-PyrS2-2OMeF-BztA-Ser-NH2]	10 nM	2.38	48 µM (≈ 91.2 µg/mL)	17.7 µM			
COc1ccccc1C[C@H](NC(=O)[C@]12CCN(C1)C(=O)OCCCC=CCCCC1(CCCC=CC[C@]3(CCCN3C(C)=O)C(=O)N[C@@H](CC(=O)O)C(=O)N[C@@H](CC(C)(C)C)C(=O)N1)C(=O)N[C@@H](CC(=O)O)C(=O)N[C@@H](CC(=O)O)C(=O)N[C@@H](C)C(=O)N[C@@H](C)C(=O)N[C@@H](Cc1ccccc1)C(=O)N[C@@H](CO)C(=O)N2)C(=O)N[C@@H](Cc1csc2ccccc12)C(=O)N[C@@H](CO)C(N)=O (stereo partly drawn) [I-1103, Ac-PL3-Asp-Npg-B5-Asp-Asp-Ala-Ala-Phe-Ser-PyrS2-2OMeF-BztA-Ser-NH2]	15 nM	2.18	46 µM (≈ 86.2 µg/mL)	16.7 µM			
CC(=O)N1CCC[C@]12CC=CCCCC1(CCCC=CCCCOC(=O)N3CC[C@@](C(=O)N[C@@H](Cc4ccccc4Cl)C(=O)N[C@@H](Cc4csc5ccccc45)C(=O)N[C@@H](CCC(N)=O)C(N)=O)(C3)NC(=O)[C@H]([C@@H](C)O)NC(=O)[C@H](Cc3ccccc3)NC(=O)[C@H](C)NC(=O)[C@H](C)NC(=O)[C@H](CC(=O)O)NC(=O)[C@H](CC(=O)O)NC1=O)NC(=O)[C@H](Cc1ccccc1)NC(=O)[C@H](CC(=O)O)NC2=O (stereo partly drawn) [I-1043, Ac-PL3-Asp-Phe-B5-Asp-Asp-Ala-Ala-Phe-Thr-PyrS2-2C1F-BztA-Gln-NH2]	12 nM	2.15	43 µM (≈ 84 µg/mL)	> 20 µM			
CC(=O)N1CCC[C@]12CC=CCCCC1(CCCC=CCCCOC(=O)N3CC[C@@](C(=O)N[C@@H](Cc4ccsc4)C(=O)N[C@@H](Cc4csc5ccccc45)C(=O)N[C@@H](Cc4c[nH]cn4)C(N)=O)(C3)NC(=O)[C@H](CC(C)C)NC(=O)[C@H](Cc3ccccc3)NC(=O)[C@H](C)NC(=O)[C@H](C)NC(=O)[C@H](CC(=O)O)NC(=O)[C@H](CC(=O)O)NC1=O)NC(=O)[C@H](CC(C)(C)C)NC(=O)[C@H](CC(=O)O)NC2=O (stereo partly drawn) [I-802, Ac-PL3-Asp-Npg-B5-Asp-Asp-Ala-Ala-Phe-Leu-PyrS2-3Thi-BztA-His-NH2]	6 nM	2.3		4.8 µM	10 µM (≈ 19.3 µg/mL)		
CC(=O)N1CCC[C@]12CC=CCCCC1(CCCC=CCCCOC(=O)N3CC[C@@](C(=O)N[C@@H](Cc4ccccc4)C(=O)N[C@@H](Cc4csc5ccccc45)C(=O)N[C@@H](Cc4c[nH]cn4)C(N)=O)(C3)NC(=O)[C@H](CC(N)=O)NC(=O)[C@H](Cc3ccccc3)NC(=O)[C@H](C)NC(=O)[C@H](C)NC(=O)[C@H](CC(=O)O)NC(=O)[C@H](CC(=O)O)NC1=O)NC(=O)[C@H](CC(C)(C)C)NC(=O)[C@H](CC(=O)O)NC2=O (stereo partly drawn) [I-777, Ac-PL3-Asp-Npg-B5-Asp-Asp-Ala-Ala-Phe-Asn-PyrS2-Phe-BztA-His-NH2]	5 nM	2.15		19.8 µM	50 µM (≈ 96.1 µg/mL)		inhibition at 10 µM ([2]; HEK293, @ 10 uM): 24.5%; IC50 ([2]; read-out: NanoBRET IC50): 14.4 µM
CC(=O)N1CCC[C@]12CC=CCCCC1(CCCC=CCCCOC(=O)N3CC[C@@](C(=O)N[C@@H](Cc4ccccc4Cl)C(=O)N[C@@H](Cc4csc5ccccc45)C(=O)N[C@@H](CO)C(N)=O)(C3)NC(=O)[C@H]([C@@H](C)O)NC(=O)[C@H](Cc3ccccc3)NC(=O)[C@H](C)NC(=O)[C@H](C)NC(=O)[C@H](CC(=O)O)NC(=O)[C@H](CC(=O)O)NC1=O)NC(=O)[C@H](Cc1ccc3ccccc3c1)NC(=O)[C@H](CC(=O)O)NC2=O (stereo partly drawn) [I-1115, Ac-PL3-Asp-2NapA-B5-Asp-Asp-Ala-Ala-Phe-Thr-PyrS2-2C1F-BztA-Ser-NH2]	28 nM	2.5	32 µM (≈ 62.8 µg/mL)	24.3 µM			
CC(=O)N1CCC[C@]12CC=CCCCC1(CCCC=CCCCOC(=O)N3CC[C@@](C(=O)N[C@@H](Cc4ccsc4)C(=O)N[C@@H](Cc4csc5ccccc45)C(=O)N[C@@H](CCC(N)=O)C(=O)N[C@@H](CCCCNC(=O)c4ccc(CN(C)C)cc4)C(N)=O)(C3)NC(=O)[C@H](CC(N)=O)NC(=O)[C@H](Cc3ccccc3)NC(=O)[C@H](C)NC(=O)[C@H](C)NC(=O)[C@H](CC(=O)O)NC(=O)[C@H](CC(=O)O)NC1=O)NC(=O)[C@H](CC(C)(C)C)NC(=O)[C@H](CC(=O)O)NC2=O (stereo partly drawn) [I-910, Ac-PL3-Asp-Npg-B5-Asp-Asp-Ala-Ala-Phe-Asn-PyrS2-3Thi-BztA-Gln-[Me2NCBz]Lys-NH2]	10 nM	1.84	40 µM (≈ 88.3 µg/mL)	29.8 µM			
CC(=O)N1CCC[C@]12CC=CCCCC1(CCCC=CCCCCCC[C@@](C)(C(=O)N[C@@H](Cc3ccccc3)C(=O)N[C@@H](Cc3csc4ccccc34)C(=O)N[C@@H](Cc3c[nH]cn3)C(N)=O)NC(=O)[C@H](CC(N)=O)NC(=O)[C@H](Cc3ccccc3)NC(=O)[C@H](C)NC(=O)[C@H](C)NC(=O)[C@H](CC(=O)O)NC(=O)[C@H](CC(=O)O)NC1=O)NC(=O)[C@H](CC(C)C)NC(=O)[C@H](CC(=O)O)NC2=O (stereo partly drawn) [I-564, Ac-PL3-Asp-Leu-B5-Asp-Asp-Ala-Ala-Phe-Asn-S8-Phe-BztA-His-NH2]					47 µM (≈ 87.6 µg/mL)	2.374	IC50 [1, 3]: 36 nM; IC50 ([1]; read-out: FP EC50): 36 nM; IC50 ([2]; absolute IC50, read-out: NanoBRET Abs IC50): > 20 µM
CC(=O)N1CCC[C@]12CC=CCCCC1(CCCC=CCCCCOC(=O)N3CC[C@@](C(=O)N[C@@H](Cc4ccsc4)C(=O)N[C@@H](Cc4csc5ccccc45)C(=O)N[C@@H](Cc4c[nH]cn4)C(=O)N[C@H](C)C(N)=O)(C3)NC(=O)[C@H](CC(N)=O)NC(=O)[C@H](Cc3ccccc3)NC(=O)[C@H](C)NC(=O)[C@H](C)NC(=O)[C@H](CC(=O)O)NC(=O)[C@H](CC(=O)O)NC1=O)NC(=O)[C@H](CC(C)(C)C)NC(=O)[C@H](CC(=O)O)NC2=O (stereo partly drawn) [I-833, Ac-PL3-Asp-Npg-B5-Asp-Asp-Ala-Ala-Phe-Asn-PyrS3-3Thi-BztA-His-dAla-NH2]	8 nM			48.1 µM	50 µM (≈ 101 µg/mL)	2.146	IC50 ([1]; fluorescence polarization, beta-catenin, read-out: FP EC50): 8 nM
C[C@@H]1NC(=O)[C@H](C)NC(=O)[C@H](CN(CC(=O)O)CC(F)(F)F)NC(=O)[C@H](CC(=O)O)NC(=O)C2(CCCC=CCCCOC(=O)N3CC[C@@](C(=O)N[C@@H](Cc4ccsc4)C(=O)N[C@@H](Cc4csc5ccccc45)C(=O)N[C@@H](CCC(N)=O)C(N)=O)(C3)NC(=O)[C@H](CC(N)=O)NC(=O)[C@H](Cc3ccccc3)NC1=O)CCCC=CC[C@]1(CCCN1C(=O)CN=[N+]=[N-])C(=O)N[C@@H](CC(=O)O)C(=O)N[C@@H](CC(C)(C)C)C(=O)N2 (stereo partly drawn) [I-1054, AzAc-PL3-Asp-Npg-B5-Asp-TfeGA-Ala-Ala-Phe-Asn-PyrS2-3Thi-BztA-Gln-NH2]					46 µM (≈ 95.2 µg/mL)		chromatographic logD (CHI Log D procedure; pH 7.4): 2.19; IC50 ([2]; NanoBRET Abs IC50 (uM), absolute IC50): > 20 µM
CC(=O)N1CCC[C@]12CC=CCCCC1(CCCC=CCCCCCC[C@@](C)(C(=O)N[C@@H](Cc3ccccc3)C(=O)N[C@@H](C)C(=O)N[C@@H](CCC(N)=O)C(N)=O)NC(=O)[C@H](C(C)C)NC(=O)[C@H](Cc3ccccc3)NC(=O)[C@H](C)NC(=O)[C@H](C)NC(=O)[C@H](CC(=O)O)NC(=O)[C@H](CC(=O)O)NC1=O)NC(=O)[C@H](C)NC(=O)[C@H](CC(=O)O)NC2=O (stereo partly drawn) [I-357, Ac-PL3-Asp-Ala-B5-Asp-Asp-Ala-Ala-Phe-Val-S8-Phe-Ala-Gln-NH2]					46 µM (≈ 76.6 µg/mL)	1.852	inhibition at 10 µM ([2]; HEK293, 10 uM): -5.3%
CC(=O)N1CCC[C@]12CC=CCCCC1(CCCC=CCCCCCC[C@@](C)(C(=O)N[C@@H](Cc3ccccc3)C(=O)N[C@@H](Cc3csc4ccccc34)C(=O)N[C@@H](Cc3c[nH]cn3)C(N)=O)NC(=O)[C@H](CC(N)=O)NC(=O)[C@H](Cc3ccccc3)NC(=O)[C@H](C)NC(=O)[C@H](C)NC(=O)[C@H](CCC(=O)O)NC(=O)[C@H](CC(=O)O)NC1=O)NC(=O)[C@H](C)NC(=O)[C@H](CC(=O)O)NC2=O (stereo partly drawn) [I-422, Ac-PL3-Asp-Ala-B5-Asp-Glu-Ala-Ala-Phe-Asn-S8-Phe-BztA-His-NH2]					24 µM (≈ 44.1 µg/mL)	2.136	IC50 [1, 3]: 27 nM; IC50 ([1]; read-out: FP EC50): 27 nM
